Data: article PMC7841422, “Predicting Volume of Distribution in Humans: Performance of In Silico Methods for a Large Set of Structurally Diverse Clinical Compounds” (Drug Metabolism and Disposition, 2021)

Assay: Blood-to-plasma partition ratio in human blood
Type: in vitro ADME
Details: human whole blood (K2EDTA as anticoagulant), control compounds, 37°C, 60 minutes incubation, LC/MS/MS, read-out: Blood-to-plasma partition ratio (BPR)
Method: In vitro measurement of blood-to-plasma partition was conducted in human blood (K2EDTA as anticoagulant) obtained from a commercial source (BioReclamation IVT, Liverpool, NY). Hematocrit (the ratio of volume of red blood cells to total blood) was measured by centrifugation of the whole blood at 3000 rpm for 10 minutes using microhematocrit capillary tubes. Control plasma was prepared from a portion of the whole blood by centrifugation at 3000g for 10 minutes. Both whole blood and control plasma samples were warmed at 37°C in a water bath for 30 minutes. Subsequently, the test compounds (1 µM in the final concentration) and controls [methazolamide (BPR ∼1) and metoprolol (BPR […])] were spiked into blood and incubated at 37°C (5% CO2) with shaking at 200 rpm for 60 minutes along with control samples. After incubation for 60 minutes, the incubated whole blood was removed from the water bath, and the plasma was separated by centrifugation at 1000g for 10 minutes. Aliquots of the control plasma were also removed. […] Test compounds and internal standard response (or peak area) ratio in whole blood and its resulting plasma were measured using liquid chromatography with tandem mass spectrometry (LC/MS/MS). Blood-to-plasma partition was calculated by ratio of mass spectrometric response of compounds in blood samples after 60 minutes of incubation to mass spectrometric response in plasma samples.

blood plasma ratio at 60 min | Compound
~1 | CC(=O)/N=c1/sc(S(N)(=O)=O)nn1C [methazolamide]
~40 | COCCc1ccc(OCC(O)CNC(C)C)cc1 (centres unmarked) [metoprolol]
